Data as given in patent US8795632B2, “Disease animal model for chronic pain” (Astellas Pharma Inc., priority 2008, dated 2014).

Test system: Sprague-Dawley rats
Assay: Skin pain sensation threshold value (von Frey filaments) after repeated administration of reserpine
Format: in vivo, rat
Details: for time after reserpine final administration until which skin pain sensation threshold value was statistically significantly low vs solvent group: reserpine 1 mg/kg s.c. once a day for 3 days
Procedure: Measurement of muscle pressure pain threshold value was carried out in accordance with the method of Schafers et al. (Schafers M. et al., Pain, 104, 579-588, 2003). A pressure stimulus of gradually increasing to 250 g at the maximum was added to the rat right hind leg gastrocnemius muscle. […] The measurement was carried out 3 times at each point of time of the measurement, and the average was used as the measurement value. Measurement of the skin pain sensation threshold value was carried out in accordance with the method of Chaplan et al. (Chaplan et al., J. Neurosci. Methods, 53, 55-63, 1994). This was measured using a series of von Frey filaments having different diameters which may add a constant pressure. […] The von Frey filament was applied using the up and down method. That is, by firstly applying a filament of middle diameter, a filament having one rank smaller diameter was applied when the withdrawal reaction was observed or a filament having one rank larger diameter was applied when the withdrawal reaction was not observed. The skin pain sensation threshold value at each point of time of the measurement was calculated as a hind paw withdrawal reaction threshold value (g) using the calculation formula reported by Chaplan et al. (Chaplan et al., described above). Influences of reserpine upon the muscle pressure pain threshold value and skin pain sensation threshold value were examined by the following protocol. A total of 24 animals for each of male and female rats were used. After measuring muscle pressure pain threshold value and skin pain sensation threshold value before the reserpine treatment (base line), they were divided based on the reserpine administration doses into a solvent (0.5% acetic acid aqueous solution) group, a reserpine 0.1 mg/kg group, a 0.3 mg/kg group and a 1 mg/kg group (the number of animals per one group was 6). The solvent or reserpine was subcutaneously administered on the back of the rats of each group once a day for 3 days. All of the administration volume of the solvent or reserpine was set to 1 ml per 1 kg body weight of each animal. After final administration of the solvent or reserpine, the muscle pressure pain threshold value and skin pain sensation threshold value of each rat were measured 1, 3, 5, 7, 10, 14 and 21 days thereafter.
All of the measured values were expressed as average value±standard error. Statistical significance test of the measured values between the reserpine administration groups and the solvent administration group at each point of time was carried out by a two-way analysis of variance and the Bonferroni method. Probability value (P) of less than 5% was judged as statistically significant (P<0.05 was expressed as * in the graphs).

## COC(=O)[C@H]1[C@H]2C[C@@H]3c4[nH]c5cc(OC)ccc5c4CCN3C[C@H]2C[C@@H](OC(=O)c2cc(OC)c(OC)c(OC)c2)[C@@H]1OC [reserpine]
Female rats
  time after reserpine final administration until which skin pain sensation threshold value was statistically significantly low vs solvent group: 14 days
Male and female rats, reserpine 0.1, 0.3, 1 mg/kg s.c. once a day for 3 days, two-way analysis of variance vs solvent
  skin pain sensation threshold value: significantly reduced
Male rats
  time after reserpine final administration until which skin pain sensation threshold value was statistically significantly low vs solvent group: 21 days
Reserpine 1 mg/kg group, s.c. once a day for 3 days
  skin pain sensation threshold value: markedly reduced
